Where two headings read alike, the source gives them in different places.
Key:
[1] = system: wild chamomile (MATCH, Matricaria chamomilla); test: Greenhouse postemergence herbicidal effect; assay type: in vivo
Protocol: (§1) The plants were grown for 7-36 days (d) in a greenhouse with an approximate 14-hour (h) photo-period which was maintained at about 23° C. during the day and 22° C. during the night. Nutrients and water were added on a regular basis and supplemental lighting was provided with overhead metal halide 1000-Watt lamps as necessary. The plants were employed for testing when they reached the second or third true leaf stage.
(§2) The emulsifiable concentrates also included a safener, cloquintocet-mexyl, at 120 grams active ingredient per liter (g ai/L), unless otherwise noted below.
(§3) Control plants were sprayed in the same manner with the solvent blank. All pyridine carboxylate herbicide (component a) application rates are given as “g ae/ha” and all ALS inhibitor (component b) application rates are given as “g ai/ha.”
(§4) The treated plants and control plants were placed in a greenhouse as described above and watered by sub-irrigation to prevent wash-off of the test compounds. After 20-22 d, the condition of the test plants as compared with that of the control plants was determined visually and scored on a scale of 0 to 100 percent where 0 corresponds to no injury and 100 corresponds to complete kill.

[2] = system: spring rape (BRSNN, Brassica napus); test: Greenhouse postemergence herbicidal effect; assay type: in vivo
Protocol: as §1, §2, §3, §4

[3] = system: wild buckwheat (POLCO, Polygonum convolvulus); test: Greenhouse postemergence herbicidal effect; assay type: in vivo; conditions: for Obs % visual injury: POLCO
Protocol: as §1, §2, §3, §4

[4] = system: Russian thistle (SASKR, Salsola kali); test: Greenhouse postemergence herbicidal effect; assay type: in vivo
Protocol: as §1, §2, §3, §4

[5] = system: wild mustard (SINAR, Sinapis arvensis); test: Greenhouse postemergence herbicidal effect; assay type: in vivo
Protocol: as §1, §2, §3, §4

[6] = system: pigweed (AMARE, Amaranthus retroflexus); test: Greenhouse postemergence herbicidal effect; assay type: in vivo; conditions: for Obs % visual injury: AMARE
Protocol: as §1, §2, §3, §4

[7] = system: common lambsquarters (CHEAL, Chenopodium album L.); test: Greenhouse postemergence herbicidal effect; assay type: in vivo; conditions: for Obs % visual injury: CHEAL
Protocol: (§5) Seeds of the desired test plant species were planted in a 90:10% v/v (volume/volume) mixture of PRO-MIX® BX (Premier Tech Horticulture, Quakertown, PA, USA) and PROFILE® GREENS GRADE™ (Profile Products LLC, Buffalo Grove, IL, USA) planting mixture, which typically has a pH of 5.2 to 6.2 and an organic matter content of at least 50 percent, in plastic pots with a surface area of 103.2 square centimeters (cm^2). […] The plants were grown for 7-36 days (d) in a greenhouse with an approximate 14-hour (h) photo-period which was maintained at about 23° C. during the day and 22° C. during the night. Nutrients and water were added on a regular basis and supplemental lighting was provided with overhead metal halide 1000-Watt lamps as necessary. The plants were employed for testing when they reached the second or third true leaf stage.
(§6) Emulsifiable concentrates of each of each pyridine carboxylate herbicide (Compound A or Compound B) were prepared at 100 grams acid equivalent per liter (g ae/L). The emulsifiable concentrates also included a safener, cloquintocet-mexyl, at 120 grams active ingredient per liter (g ai/L), unless otherwise noted below. An aliquot of each emulsifiable concentrate was placed in a 25 mL glass vial and diluted with an aqueous mixture of 1.25% (v/v) ACTIROB® B esterified rapeseed oil (Bayer Crop Science, Research Triangle Park, NC, USA) or MSO® Concentrate with LECI-TECH® methylated soybean oil (Loveland Products, Loveland, CO, USA) to obtain concentrated stock solutions at the highest application rate for each herbicide, based upon a 12 milliliter (mL) application volume at a rate of 187 liters per hectare (L/ha). The concentrated stock solutions were further diluted with an aqueous mixture of 1.25% v/v ACTIROB® B or MSO® Concentrate with LECI-TECH® to obtain stock solutions at reduced application rates for each herbicide. Spray solutions of the herbicide combinations (Compound A or Compound B plus ALS herbicide) were prepared by adding weighed amounts or aliquots of the ALS herbicides to the stock solutions of Compound A or Compound B to form 12-mL spray solutions in two- or three-way combinations.
(§7) The spray solutions were applied to the plant material with an overhead Mandel track sprayer equipped with 8002E nozzles calibrated to deliver 187 L/ha over an application area of 0.503 square meters (m^2) at a spray height of 18 inches (43 centimeters (cm)) above the average plant canopy. Control plants were sprayed in the same manner with the solvent blank. All pyridine carboxylate herbicide (component a) application rates are given as “g ae/ha” and all ALS inhibitor (component b) application rates are given as “g ai/ha.”
as §4

[8] = system: kochia (KCHSC, Kochia scoparia); test: Greenhouse postemergence herbicidal effect; assay type: in vivo; conditions: for Obs % visual injury: KCHSC
Protocol: as §5, §6, §7, §4

spring barley (HORVS) = assay type: in vivo, Hordeum vulgare
Protocol: as §1, §2, §3, §4

[9] = system: Canadian thistle (CIRAR, Cirsium arvense); test: Greenhouse postemergence herbicidal effect; assay type: in vivo; conditions: for Obs % visual injury: CIRAR
Protocol: as §1, §2, §3, §4

spring wheat (TRZAS) = assay type: in vivo, Triticum aestivum
Protocol: as §1, §2, §3, §4

[10] = system: chickweed (STEME, Stellaria media); test: Greenhouse postemergence herbicidal effect; assay type: in vivo; conditions: STEME
Protocol: as §1, §2, §3, §4

[11] = system: wild pansy (VIOTR, Viola tricolor); test: Greenhouse postemergence herbicidal effect; assay type: in vivo; conditions: for Obs % visual injury: VIOTR
Protocol: as §1, §2, §3, §4

[12] = system: large crabgrass (DIGSA, Digitaria sanguinalis); test: Greenhouse postemergence herbicidal effect; assay type: in vivo; conditions: DIGSA
Source text: (§8) Seeds of the desired test plant species were planted in a 90:10% v/v (volume/volume) mixture of PRO-MIX® BX (Premier Tech Horticulture, Quakertown, PA, USA) and PROFILE® GREENS GRADE™ (Profile Products LLC, Buffalo Grove, IL, USA) planting mixture, which typically has a pH of 5.2 to 6.2 and an organic matter content of at least 50 percent, in plastic pots with a surface area of 103.2 square centimeters (cm^2). In some aspects, to ensure good germination and healthy plants, a fungicide treatment and/or other chemical or physical treatment was applied. The plants were grown for 7-36 days (d) in a greenhouse with an approximate 14-hour (h) photo-period which was maintained at about 23° C. during the day and 22° C. during the night. Nutrients and water were added on a regular basis and supplemental lighting was provided with overhead metal halide 1000-Watt lamps as necessary. The plants were employed for testing when they reached the second or third true leaf stage.
as §6, §7, §4

[13] = system: broad-leaf dock (RUMOB, Rumex obtusifolius); test: Greenhouse postemergence herbicidal effect; assay type: in vivo; conditions: RUMOB
Source text: as §8, §6, §7, §4

[14] = system: winter rape (BRSNW, Brassica napus); test: Greenhouse postemergence herbicidal effect; assay type: in vivo
Protocol: as §1, §2, §3, §4

CCOc1nc(F)cc2nc(S(=O)(=O)Nc3c(Cl)cccc3Cl)nn12 [Diclosulam, diclosulam]
% visual injury Obs ([1]; Diclosulam 17.5 g/ha): 68%
% visual injury Obs ([2]; Diclosulam 17.5 g/ha): 100%
% visual injury Obs ([3]; Diclosulam 17.5 g/ha): 98%
% visual injury Obs ([4]; Diclosulam 17.5 g/ha): 25%
% visual injury Obs ([5]; Diclosulam 17.5 g/ha): 100%
% visual injury Obs ([6]; Diclosulam 17.5 g/ha): 85%
% visual injury Obs ([7]; Diclosulam 17.5 g/ha): 0%
% visual injury Obs ([8]; Diclosulam 17.5 g/ha): 0%

CON=C(C)c1cccc(Oc2nc(OC)cc(OC)n2)c1C(=O)O (mixture of isomers) [Pyriminobac, pyriminobac]
% visual injury, Obs (spring barley (HORVS); 17.5 g/ha): 0%
pest or weed control at 17.5 g/ha ([9]; Cirsium arvense, post-emergence, read-out: % visual injury, Obs): 0%
% visual injury, Obs ([1]; 17.5 g/ha): 5%
% visual injury, Obs ([2]; 17.5 g/ha): 0%
% visual injury, Obs ([4]; 17.5 g/ha): 0%
% visual injury, Obs ([5]; 17.5 g/ha): 5%
% visual injury, Obs ([7]; 17.5 g/ha): 5%
pest or weed control at 17.5 g/ha ([8]; Bassia scoparia, post-emergence, read-out: % visual injury, Obs): 0%
% visual injury, Obs (spring wheat (TRZAS); 17.5 g/ha): 0%

pyriminobac
Obs % visual injury ([9]; Pyriminobac methyl 30 g/ha): 8%
Obs % visual injury ([3]; Pyriminobac methyl 30 g/ha): 80%
Obs % visual injury ([10]; Pyriminobac methyl 30 g/ha): 15%
Obs % visual injury ([6]; Pyriminobac methyl 30 g/ha): 93%
Obs % visual injury ([11]; Pyriminobac methyl 30 g/ha): 5%
Obs % visual injury ([12]; Pyriminobac methyl 30 g/ha): 0%
Obs % visual injury ([13]; Pyriminobac methyl 30 g/ha): 65%
Obs % visual injury ([7]; Pyriminobac methyl 30 g/ha): 20%
Obs % visual injury ([8]; Pyriminobac methyl 30 g/ha): 33%
Obs % visual injury (spring wheat (TRZAS); TRZAS, Pyriminobac methyl 30 g/ha): 0%

COc1cc(OC)nc(NC(=O)NS(=O)(=O)N(C)S(C)(=O)=O)n1 [Amidosulfuron, amidosulfuron]
% visual injury ([9]; Amidosulfuron 45 g/ha): 18%
pest or weed control at 22.5 g/ha ([9]; Cirsium arvense, post-emergence, 22.5 g/ha, read-out: % visual injury, Obs): 15%
% visual injury ([1]; Amidosulfuron 45 g/ha): 50%
% visual injury, Obs ([2]; 22.5 g/ha): 98%
% visual injury ([3]; Amidosulfuron 45 g/ha): 55%
% visual injury ([5]; Amidosulfuron 45 g/ha): 82%
% visual injury ([6]; Amidosulfuron 45 g/ha): 100%
% visual injury ([14]; Amidosulfuron 45 g/ha): 98%
% visual injury, Obs ([11]; 22.5 g/ha): 18%
% visual injury ([7]; Amidosulfuron 45 g/ha): 25%
% visual injury ([8]; Amidosulfuron 45 g/ha): 5%
pest or weed control at 22.5 g/ha ([8]; Bassia scoparia, post-emergence, 22.5 g/ha, read-out: % visual injury, Obs): 15%

CCOc1nc(F)cc2nc(S(=O)(=O)Nc3c(Cl)cccc3C(=O)O)nn12 [Cloransulam, cloransulam]
% visual injury Obs (spring barley (HORVS); Cloransulam 17.5 g/ha): 15%
% visual injury Obs ([1]; Cloransulam 17.5 g/ha): 40%
% visual injury Obs ([2]; Cloransulam 17.5 g/ha): 100%
% visual injury Obs ([3]; Cloransulam 17.5 g/ha): 80%
% visual injury Obs ([4]; Cloransulam 17.5 g/ha): 25%
% visual injury Obs ([5]; Cloransulam 17.5 g/ha): 97%
% visual injury Obs ([6]; Cloransulam 17.5 g/ha): 15%
% visual injury Obs ([7]; Cloransulam 17.5 g/ha): 0%
% visual injury Obs ([8]; Cloransulam 17.5 g/ha): 0%
% visual injury Obs (spring wheat (TRZAS); Cloransulam 17.5 g/ha): 0%

COCc1cnc(C2=NC(C)(C(C)C)C(=O)N2)c(C(=O)O)c1 (centres unmarked) [Imazamox, imazamox]
pest or weed control at 17.5 g/ha ([9]; Cirsium arvense, post-emergence, 17.5 g/ha, read-out: % visual injury, Obs): 63%
% visual injury, Obs ([11]; 17.5 g/ha): 75%

COc1cc(OC)nc(Sc2cccc3c2C(=O)OC3C)n1 (centres unmarked) [Pyriftalid, pyriftalid]
% visual injury, Obs (spring barley (HORVS); 30 g/ha): 5%
% visual injury, Obs ([1]; 30 g/ha): 0%
% visual injury, Obs ([2]; 30 g/ha): 18%
% visual injury, Obs ([4]; 30 g/ha): 0%
% visual injury, Obs ([5]; 30 g/ha): 23%
pest or weed control at 30 g/ha ([8]; Bassia scoparia, post-emergence, 30 g/ha, read-out: % visual injury, Obs): 0%
% visual injury, Obs (spring wheat (TRZAS); 30 g/ha): 0%

CC(C)C1(C)N=C(c2ncccc2C(=O)O)NC1=O (centres unmarked) [Imazapyr, imazapyr]
pest or weed control at 140 g/ha ([9]; Cirsium arvense, post-emergence, 140 g/ha, read-out: % visual injury, Obs): 80%
% visual injury, Obs ([11]; 140 g/ha): 63%
pest or weed control at 140 g/ha ([8]; Bassia scoparia, post-emergence, 140 g/ha, read-out: % visual injury, Obs): 54%

COc1nn(C(=O)NS(=O)(=O)c2c(C(=O)O)csc2C)c(=O)n1C [Thiencarbazone, thiencarbazone]
% visual injury (spring barley (HORVS); in vivo): 0%
% visual injury Obs (spring barley (HORVS); in vivo): 8%
% visual injury ([9]; Thiencarbazone 5 g/ha): 10%
% visual injury Obs ([9]; Thiencarbazone 10 g/ha): 45%
% visual injury ([1]; Thiencarbazone 5 g/ha): 55%
% visual injury Obs ([1]; Thiencarbazone 10 g/ha): 80%
% visual injury ([3]; Thiencarbazone 5 g/ha): 89%
% visual injury Obs ([3]; Thiencarbazone 10 g/ha): 95%
% visual injury ([4]; Thiencarbazone 5 g/ha): 53%
% visual injury ([5]; Thiencarbazone 5 g/ha): 95%
% visual injury Obs ([5]; Thiencarbazone 10 g/ha): 90%
% visual injury ([6]; Thiencarbazone 5 g/ha): 83%
% visual injury Obs ([6]; Thiencarbazone 10 g/ha): 98%
% visual injury ([14]; Thiencarbazone 5 g/ha): 97%
% visual injury Obs ([14]; Thiencarbazone 10 g/ha): 98%
% visual injury ([7]; Thiencarbazone 5 g/ha): 60%
% visual injury Obs ([7]; Thiencarbazone 10 g/ha): 83%
% visual injury ([8]; Thiencarbazone 5 g/ha): 25%
% visual injury Obs ([8]; Thiencarbazone 10 g/ha): 45%
% visual injury (spring wheat (TRZAS); in vivo): 0%
% visual injury Obs (spring wheat (TRZAS); in vivo): 0%

COc1cc(OC)nc(NC(=O)NS(=O)(=O)Cc2ccccc2C(=O)O)n1 [Bensulfuron, bensulfuron]
Obs % visual injury ([9]; Bensulfuron 16 g/ha): 20%
% visual injury, Obs ([1]; 16 g/ha): 38%
Obs % visual injury ([3]; Bensulfuron 16 g/ha): 80%
Obs % visual injury ([10]; Bensulfuron 16 g/ha): 8%
% visual injury, Obs ([4]; 16 g/ha): 0%
Obs % visual injury ([6]; Bensulfuron 16 g/ha): 20%
Obs % visual injury ([11]; Bensulfuron 16 g/ha): 8%
Obs % visual injury ([12]; Bensulfuron 16 g/ha): 0%
Obs % visual injury ([13]; Bensulfuron 16 g/ha): 60%
% visual injury, Obs ([7]; 16 g/ha): 10%
Obs % visual injury ([7]; Bensulfuron 16 g/ha): 10%
% visual injury, Obs ([8]; 16 g/ha): 5%
Obs % visual injury ([8]; Bensulfuron 16 g/ha): 20%
